Results reported in PubChem BioAssay AID434996 (Southern Research Specialized Biocontainment Screening …, 2010).
Active and inactive are the calls of the source.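 Rule for the calls: active = inhibition above 30% at one or more tested concentrations in the dose response; inactive = inhibition below 30% at every tested concentration.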

How the values were obtained:
[1] = PhoP regulon inhibitors in S. Typhimurium, SAR follow-up, synthesized compounds, round 3, GFP (AID 434996); details: S. Typhimurium PhoP-regulated promoter GFP reporter, 4 h; at 150 µM (top of the series)
[2] = test system: S. Typhimurium PhoP-regulated promoter GFP reporter, 4 h; assay: as above

Structure (SMILES)	inhibition [1]	IC50 [2]
Cc1cccc(NC(=O)N2CCCN(Cc3ccccc3F)C2)c1	21.2% (inactive)	–
N#Cc1ccc(NC(=S)NCc2ccc(Cl)cc2)cc1	-4.09% (inactive)	–
N#Cc1ccccc1NC(=S)NCc1ccc(Cl)cc1	-0.55% (inactive)	–
O=C(Nc1ccc(Cl)cc1)N1CCCN(Cc2ccc(Br)cc2)C1	–	135 µM
O=C(Nc1ccc(Cl)cc1)N1CCCN(Cc2ccccc2Br)C1	26.3% (inactive)	–
Cc1ccc(NC(=O)N2CCCN(Cc3ccccc3F)C2)cc1	-3.01% (inactive)	–
Cc1ccccc1CNC(=S)Nc1ccncc1	15.3% (inactive)	–
O=C(Nc1ccc(I)cc1)N1CCCN(Cc2ccccc2F)C1	–	148 µM
O=C(Nc1cccc(I)c1)N1CCCN(Cc2ccccc2F)C1	20.6% (inactive)	–
O=C(Nc1cccc(F)c1)N1CCCN(Cc2ccccc2F)C1	23.5% (inactive)	–
S=C(NCCc1ccc(Cl)cc1)Nc1ccncc1	–	29.2 µM
O=C(Nc1cccc(C(F)(F)F)c1)N1CCCN(Cc2ccccc2F)C1	8.93% (inactive)	–
